Molecular target: T1, human wild-type (WT)-pendrin (Homo sapiens, UniProt O43511)
T1 construct: expressed in transfected cells
T1 sequence (O43511 1-780): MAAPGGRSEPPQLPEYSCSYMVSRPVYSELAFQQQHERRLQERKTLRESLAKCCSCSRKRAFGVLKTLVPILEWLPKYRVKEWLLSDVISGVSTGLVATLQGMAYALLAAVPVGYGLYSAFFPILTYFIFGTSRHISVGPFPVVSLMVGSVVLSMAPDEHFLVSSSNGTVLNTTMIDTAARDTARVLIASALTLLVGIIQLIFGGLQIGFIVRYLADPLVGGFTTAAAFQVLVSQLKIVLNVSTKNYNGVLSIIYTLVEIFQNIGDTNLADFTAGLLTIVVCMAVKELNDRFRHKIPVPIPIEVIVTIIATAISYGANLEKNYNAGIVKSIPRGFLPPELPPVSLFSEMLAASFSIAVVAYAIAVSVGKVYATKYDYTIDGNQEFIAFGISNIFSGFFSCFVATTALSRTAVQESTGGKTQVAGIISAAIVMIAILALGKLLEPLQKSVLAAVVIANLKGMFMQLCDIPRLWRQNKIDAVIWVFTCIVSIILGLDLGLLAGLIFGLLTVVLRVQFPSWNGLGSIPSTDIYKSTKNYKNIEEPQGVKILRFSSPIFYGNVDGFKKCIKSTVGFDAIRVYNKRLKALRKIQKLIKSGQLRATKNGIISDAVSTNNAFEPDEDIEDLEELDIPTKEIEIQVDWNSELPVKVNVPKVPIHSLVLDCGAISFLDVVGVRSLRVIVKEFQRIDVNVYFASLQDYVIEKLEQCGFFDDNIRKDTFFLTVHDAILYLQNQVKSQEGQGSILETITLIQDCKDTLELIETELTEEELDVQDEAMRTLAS
Test: Pendrin Cl−/I− exchange inhibitory activity, YFP fluorescence in CHO-K1 cells
Format: cell-based
Details: CHO-K1; for inhibition at 1 µM: compound concentration 1 μM; for inhibition at 3 µM: compound concentration 3 μM; for inhibition at 10 µM: compound concentration 10 μM; for inhibition at 30 µM: compound concentration 30 μM; for inhibition at 100 µM: compound concentration 100 μM
Procedure: Chinese hamster ovary (CHO)-K1 cells were cultured in DMEM medium containing 10% fetal bovine serum (FBS), 100 units/ml of penicillin and 100 μg/ml streptomycin. CHO-K1 cells were stably transfected with pcDNA3.1 encoding the halide sensor YFP-H148Q/I152L/F46L and human wild-type (WT)-pendrin.
(§1) CHO-K1 cells expressing human WT pendrin and YFP-F46L/H148Q/I152L were plated in 96-well microplates at a density of 2×10^4 cells per well, and cultured for 48 hours. Each well of the cell cultured 96-well plate was washed 2 times with 200 μL of PBS, and filled with 50 μL of HEPES buffered solution (140 mM NaCl, 5 mM KCl, 1 mM MgCl2, 1 mM CaCl2), 10 mM glucose and 10 mM HEPES (pH 7.4)). Test compounds (1 μL) were added to a final concentration of 1, 3, 10, 30 and 100 μM. After culturing at 37° C. for 10 minutes, the 96-well plate was located on the FLUOstar Omega Microplate Reader (BMG Labtech, Ortenberg, Germany) for a fluorescence assay. Fluorescence was recorded continuously (400 ms per point) for 1 second (baseline), whereby each well was assayed individually for pendrin-mediated I-influx. Then 50 μL of Na-substituted HEPES buffered solution (replacing NaCl with NaI) was added using a liquid injector at 1 second, and YFP fluorescence was recorded for 5 seconds. The initial iodide influx rate was determined from the initial slope of fluorescence by nonlinear regression, after the injection of iodide.
as §1, with “Chinese hamster ovary (CHO)-K1 cells were cultured in DMEM medium containing 10% fetal bovine serum (FBS), 100 units/ml of penicillin and 100 μg/ml streptomycin. CHO-K1 cells were stably transfected with pcDNA3.1 encoding the halide sensor YFP-H148Q/I152L/F46L and human wild-type (WT)-pendrin. 3-2: Assay of Cl^−/I^− exchange activity CHO-K1” for “CHO-K1”, “50” for “1, 3, 10, 30 and 100”, “Then,” for “Then”, “NaI-substituted” for “Na-substituted”

SMILES | inhibition at 1 µM [%] | inhibition at 3 µM [%] | inhibition at 10 µM [%] | inhibition at 30 µM [%] | inhibition at 100 µM [%]
Cc1cccc(N2CCN(C(=O)Cc3c(C(=O)O)[nH]c4ccc(Cl)cc34)CC2)c1C [YPI-A4799, 5-Chloro-3-(2-(4-(2,3-dimethylphenyl)piperazin-1-yl)-2-oxoethyl)-1H-indole-2-carboxylic acid] | 27.9 | 65.3 | 94.2 | 95.5 | 97.1
Cc1ccc(N2CCN(C(=O)Cc3c(C(=O)O)[nH]c4ccc(Cl)cc34)CC2)c(C)c1 [YPI-A4801, 5-Chloro-3-(2-(4-(2,4-dimethylphenyl)piperazin-1-yl)-2-oxoethyl)-1H-indole-2-carboxylic acid] | 40.9 | 72.8 | 95.4 | 96.7 | 97.4
O=C(O)c1[nH]c2ccc(Cl)cc2c1CC(=O)N1CCN(c2ccccc2Cl)CC1 [YPI-A4803, 5-Chloro-3-(2-(4-(2-chlorophenyl)piperazin-1-yl)-2-oxoethyl)-1H-indole-2-carboxylic acid] | < 20 | < 20 | 39.4 | 73.9 | 95.7
O=C(O)c1[nH]c2ccc(Cl)cc2c1CC(=O)N1CCN(c2ccc(Cl)cc2)CC1 [YPI-A4843, 5-Chloro-3-(2-(4-(4-chlorophenyl)piperazin-1-yl)-2-oxoethyl)-1H-indole-2-carboxylic acid] | < 20 | < 20 | 40.3 | 91.4 | 92.1
O=C(O)c1[nH]c2ccc(Cl)cc2c1CC(=O)N1CCN(c2ccccc2Br)CC1 [YPI-A4844, 3-(2-(4-(2-Bromophenyl)piperazin-1-yl)-2-oxoethyl)-5-chloro-1H-indole-2-carboxylic acid] | < 20 | < 20 | 59.7 | 92.5 | 
O=C(O)c1[nH]c2ccc(Cl)cc2c1CC(=O)N1CCN(c2cccc(Br)c2)CC1 [YPI-A4845, 3-(2-(4-(3-Bromophenyl)piperazin-1-yl)-2-oxoethyl)-5-chloro-1H-indole-2-carboxylic acid] | < 20 | < 20 | 35.1 | 88.8 | 
Cc1ccc(N2CCN(C(=O)Cc3c(C(=O)O)[nH]c4ccc(Cl)cc34)CC2)cc1 [YPI-A4849, 5-Chloro-3-(2-oxo-2-(4-(p-tolyl)piperazin-1-yl)ethyl)-1H-indole-2-carboxylic acid] | < 20 | < 20 | 36.8 | 90.9 | 92.3
COc1ccc(N2CCN(C(=O)Cc3c(C(=O)O)[nH]c4ccc(Cl)cc34)CC2)cc1 [YPI-A4878, 5-Chloro-3-(2-(4-(4-methoxyphenyl)piperazin-1-yl)-2-oxoethyl)-1H-indole-2-carboxylic acid] | < 20 | < 20 | < 20 | < 20 | 79.4
CC(C)(C)OC(=O)N1CCN(C(=O)Cc2c(C(=O)O)[nH]c3ccc(Cl)cc23)CC1 [YPI-A4879, 3-(2-(4-(tert-butoxycarbonyl)piperazin-1-yl)-2-oxoethyl)-5-chloro-1H-indole-2-carboxylic acid] | < 20 | < 20 | < 20 | < 20 | < 20

Now from value to compound:

inhibition at 1 µM [%] | inhibition at 3 µM [%] | inhibition at 10 µM [%] | inhibition at 30 µM [%] | inhibition at 100 µM [%] | SMILES
< 20 | < 20 | 66.7 | 92.7 | 95.3 | O=C(O)c1[nH]c2ccc(Cl)cc2c1CC(=O)N1CCN(c2ccc(C(F)(F)F)cc2)CC1 [YPI-A4779, 5-Chloro-3-(2-oxo-2-(4-(4-(trifluoromethyl)phenyl)piperazin-1-yl)ethyl)-1H-indole-2-carboxylic acid]
< 20 | 21.5 | 71.4 | 93.8 | 95.6 | O=C(O)c1[nH]c2ccc(Cl)cc2c1CC(=O)N1CCN(c2ccccc2C(F)(F)F)CC1 [YPI-A4781, 5-Chloro-3-(2-oxo-2-(4-(2-(trifluoromethyl)phenyl)piperazin-1-yl)ethyl)-1H-indole-2-carboxylic acid]
39.9 | 74.5 | 100 | 100 | 100 | Cc1cccc(C)c1N1CCN(C(=O)Cc2c(C(=O)O)[nH]c3ccc(Cl)cc23)CC1 [YPI-A4783, 5-Chloro-3-(2-(4-(2,6-dimethylphenyl)piperazin-1-yl)-2-oxoethyl)-1H-indole-2-carboxylic acid]
< 20 | < 20 | 73.3 | 94.7 |  | O=C(O)c1[nH]c2ccc(Cl)cc2c1CC(=O)N1CCN(c2ccc(Br)cc2)CC1 [YPI-A4846, 3-(2-(4-(4-Bromophenyl)piperazin-1-yl)-2-oxoethyl)-5-chloro-1H-indole-2-carboxylic acid]
< 20 | < 20 | 60.6 | 91.5 | 92.4 | Cc1ccccc1N1CCN(C(=O)Cc2c(C(=O)O)[nH]c3ccc(Cl)cc23)CC1 [YPI-A4847, 5-Chloro-3-(2-oxo-2-(4-(o-tolyl)piperazin-1-yl)ethyl)-1H-indole-2-carboxylic acid]
< 20 | < 20 | < 20 | 58.9 | 90.5 | Cc1cccc(N2CCN(C(=O)Cc3c(C(=O)O)[nH]c4ccc(Cl)cc34)CC2)c1 [YPI-A4848, 5-Chloro-3-(2-oxo-2-(4-(m-tolyl)piperazin-1-yl)ethyl)-1H-indole-2-carboxylic acid]
< 20 | < 20 | < 20 | < 20 | 56.8 | COc1ccccc1N1CCN(C(=O)Cc2c(C(=O)O)[nH]c3ccc(Cl)cc23)CC1 [YPI-A4876, 5-Chloro-3-(2-(4-(2-methoxyphenyl)piperazin-1-yl)-2-oxoethyl)-1H-indole-2-carboxylic acid]
< 20 | < 20 | < 20 | < 20 | 67.5 | COc1cccc(N2CCN(C(=O)Cc3c(C(=O)O)[nH]c4ccc(Cl)cc34)CC2)c1 [YPI-A4877, 5-Chloro-3-(2-(4-(3-methoxyphenyl)piperazin-1-yl)-2-oxoethyl)-1H-indole-2-carboxylic acid]

— patent publication US20240287042A1, “NOVEL COMPOUND HAVING INHIBITORY ACTIVITY AGAINST PENDRIN, AND PHARMACEUTICAL USES THEREOF” (UIF (University Industry Foundation), Yonsei University, priority 2021, published 2024)
